# Reference: ChEMBL document CHEMBL4145469, “Part II: New candidates of pyrazole-benzimidazole conjugates as checkpoint kinase 2 (Chk2) inhibitors” (Eur J Med Chem, 2018)
# Assay: Toxicity in Sprague-Dawley rat assessed as mortality administered as po single dose measured up to 1 month post dose
# Type: organism-based
# Conditions: in vivo
smiles,measurement,value
Cc1nn(-c2ccccc2)c(Oc2ccc(-c3nc4cc([N+](=O)[O-])ccc4[nH]3)cc2)c1/C=N/NC(N)=O,LD50 at 1 month,500 mg/kg
